According to patent US4863899A, “Biologically active polypeptides” (priority 1987, dated 1989):
Like-named read-outs stand apart in the source and are kept apart here. Positions of bridges follow the written chain, without caps; N, C: chain ends. Residues, ends and D or L forms follow the SMILES beside them. No end group written: not given here.

Tests used:
[1] = target: T1, EGF receptors on A-431 human epidermoid carcinoma cells (Homo sapiens, UniProt P00533); assay: Radioreceptor assay, 125I-EGF binding to cells (Example XII)
T1 construct: A-431 human epidermoid carcinoma cells or human foreskin fibroblasts (HFF); endogenous in cells; host or cells: A-431 human epidermoid carcinoma cells
Protocol: (§1) A-431 human epidermoid carcinoma cells or human foreskin fibroblasts (HFF), established from primary cultures, were grown to confluence in 24-well cluster dishes (Costar) in Dulbecco's […] (DMEM, Gibco) containing 10% fetal calf serum (FCS, Hyclone). EGF was radio-iodinated as above to between 4×10^4 and 8×10^4 cpm/ng protein. Cells were incubated at 4° C. for 60 minutes with 1 nM [^125 I]EGF in the presence of inhibitor peptides in DMEM ([…]; 20 mM Hepes) containing 0.1% BSA. Cells were washed 3× with cold buffer, lysed with 0.1 N NaOH, and cell-associated radioactivity was measured (γ-counter). Nonspecific binding assessed in the presence of a 100× excess of cold EGF was less than 5% and 10% of the specific binding for A-431 and HFF cells, respectively.

[2] = target: T2, EGF receptors on human foreskin fibroblasts (HFF) (Homo sapiens, UniProt P00533); assay: as above
T2 construct: human foreskin fibroblasts (HFF), established from primary cultures; endogenous in cells; host or cells: human foreskin fibroblasts (HFF), primary-culture derived
Protocol: as §1

[3] = system: TGFα-induced DNA synthesis in quiescent HFF; assay: Cell proliferation assay, inhibition of TGFα-induced mitogenesis; format: cell-based, human; settings: 3H-methylthymidine incorporation in quiescent HFF induced by 1 nM TGFα
Protocol: (§2) HFF cells were grown to confluence in 48-well cluster dishes in DMEM-10% FCS and brought to quiescence by starvation for 2 days in DMEM-0.5% FCS. Mitogens and peptides were incubated with cells at 37° C. for 18 hours prior to a 4 hour pulse with 1 μCi [^3 H]methyl-thymidine (NEN) and trichloroacetic acid precipitable radioactivity was determined.

[4] = system: EGF-induced DNA synthesis in quiescent HFF; assay: Cell proliferation assay, inhibition of EGF-induced mitogenesis; format: cell-based, human; settings: 3H-methylthymidine incorporation in quiescent HFF induced by 1 nM EGF
Protocol: as §2

[5] = system: antiserum against peptide III; assay: Radioimmunoassay, inhibition of precipitation of 125I-peptide III; format: binding, rabbit; settings: for Relative Inhibitory Activity: half-maximal inhibitory concentration relative to peptide III, standard RIA, > = highest concentration tested; for inhibition of precipitation of 125I-peptide III, in words: compared with peptide III
Protocol: Rabbits were immunized by subcutaneous injection of 1 mg of conjugate injected subcutaneously at four separate sites. Two booster injections were administered at bi-weekly intervals following the initial injection. The serum used in this study was collected eighty days after the initial injection. An immunoglobulin fraction of this serum was prepared by ammonium sulfate precipitation. The product of antibodies specific for immunizing peptide was monitored with a solid phase enzyme-linked immunoabsorbent assay.
Reactants were mixed in a final volume of 50 microliters of a solution containing: 20 mM sodium phosphate, at pH 7.4; 200 mM NaCl: 40 mM dithiothreitol; 0.1% (w:v) BSA; 0.1% (w:v) NaN3 : ^125 I-peptide III; (10^4 cpm); antiserum at a final dilution of 1/15,000; and other additions, as specified. The reaction was initiated by the addition of antiserum and continued at 23° C. for 90 minutes. An equal volume of 10% formalin-fixed Staphalococcus A (Pansorbin, Calbiochem) was then added and incubation was continued for an additional 30 minutes at 23° C. The immunoadsorbant was removed by sedimentation through a cushion of 10% (w:v) sucrose and the amount of bound ^125 I-peptide III was determined using a gamma counter. Under these conditions, approximately 25% of ^125 I-peptide was bound by antibody in the absence of competitor. The amount of bound peptide III was corrected for non-specific binding measured in the absence of antibody (less than 5% of the total) and expressed as a percentage of maximal binding. Concentrations of competitors were expressed as the amount of peptide III required to give an equivalent inhibition of precipitation.

fetal rat long bones = assay: Bone resorption in vitro, 45Ca release; format: cell-based
Protocol: Synthetic rat TGF was prepared as described above in Example V. Purity of the protein was confirmed by sodium dodecyl sulfate-polyacrylamide gel electrophoresis, amino acid analysis, and reverse phase high-performance liquid chromatography. The biological activity of TGF preparations and synthetic TGF was monitored by means of an EGF radioreceptor assay. (Todaro et al. (1976) Nature 264, 26.) Bone resorption was assessed by measuring the release of ^45 Ca from previously labeled fetal rat long bones. Pregnant rats at the 18th day of gestation were injected with 200 μCi of ^45 Ca. (Raisz (1975) J. Clin. Invest. 44, 103.) The mothers were killed on the 19th day of gestation, and the fetuses were removed. The mineralized shafts of the radii and ulnae were dissected free of surrounding tissue and cartilage and placed in organ culture. The bones were incubated in BGJb medium (Irvine Scientific) for 24 hours at 37° C. in a humidified atmosphere of 5 percent of CO2 and 95 percent air to allow for the exchange of loosely complexed ^45 Ca. The bones were then cultured for 48 to 120 hours in BGJb medium supplemented with 5 percent fetal calf serum (KC Biologicals) containing control or test substances. […] Statistical significance was determined with Student's t test for unpaired data.

normal rat kidney cells = format: cell-based; settings: on a ng equivalent basis
antibody to TGF peptide = format: binding; settings: 125I-labeled TGF peptide
second degree burns [6] = assay: Wound healing test on second degree burns (Example VI); format: in vivo, piglets; settings: Pig 3, right side, 9 days post-burn
anti-KLH-peptide 1 IgG = assay: Solid phase RIA, 125I anti-KLH-peptide 1 IgG on BSA-peptide 1; format: binding, rabbit
Protocol: TGF peptide 1 was coupled to keyhole limpet hemocyanin (KLH) or bovine serum albumin (BSA) by thiol/maleimide linkage (King et al. (1979) J. Immunol. Methods 28, pp. 201-206). Carrier-peptide complexes were purified by gel filtration. An average of 60 moles peptide/mole KLH and 20 moles peptide/mole BSA was achieved. Rabbits were immunized with the KLH-peptide 1 conjugate by multiple subcutaneous (s.c.) and intramuscular (i.m.) injections of 2 mg protein in complete Freund's adjuvant. Rabbits were boosted s.c. every two weeks with the immunogen in incomplete Freund's adjuvant. The IgG fraction of the antiserum after 5 boosts was used for immunoassays and radiolabeled using Na^125 I (NEN) and Enzymobeads (Bio-Rad) to 4×10^5 cpm/μg protein. Polyvinyl chloride 96-well plates (Costar) were coated with 200 μg/mL BSA-peptide 1 conjugate and countercoated with 10% normal rabbit serum in phosphate-buffered saline. Plates were incubated for 4 hours at 37° C. with [^125 I]anti-KLH-peptide 1 IgG (50,000 cpm/well) in the presence or absence of inhibitors, washed and individual wells were counted.

second degree burns [7] = assay: Wound healing of second degree burns, planimetry (Example VII); format: in vivo, Yorkshire piglet; settings: once a day, after 7 days
Protocol: Another experiment was performed to measure the effect of the analog of human TGF described above on the healing of second degree burns. The experimental conditions were similar to those described above. However, the following changes were made in the procedures. One Yorkshire piglet was anesthetized with Ketamine and each of 12 burns was made using the template for 11 seconds per burn. After each blister was removed, the wounds were treated once a day with one of the following:
After 7 days, the eschar was removed.

[8] = A-431 cells, read-out: IC50, inhibition of 125I-EGF binding
[9] = 1 nM 125I-EGF, read-out: Binding IC50 (M) HFF

Compound: CC(=O)N[C@H]1CSSC[C@@H](C(N)=O)NC(=O)[C@H](CCCNC(=N)N)NC(=O)[C@H](C(C)C)NC(=O)CNC(=O)[C@H](C(C)C)NC(=O)[C@H](Cc2ccc(O)cc2)NC(=O)CNC(=O)[C@H](CO)NC(=O)[C@H](Cc2c[nH]cn2)NC1=O [Peptide 2] (Ac-CHSGYVGVRC-NH2; disulfide 1-10)
- binding potency as % of EGF or TGF-α ([1]; A-431 cells): approximately 0.02%
- IC50 [1, 8]: 4e-06 M
- IC50 [2, 9]: 2e-06 M
- IC50 [3]: 3000 nM
- IC50 [4]: 5000 nM

Compound: CHSGYVGVRCEHADLLA (cysteine pairing not given here) [Peptide III]
- Relative Inhibitory Activity [5]: 1

Compound: synthetic rTGF: rat TGF of the formula of Example II made by stepwise solid-phase synthesis, purified to homogeneity
- inhibition of precipitation of 125I-peptide III, in words [5]: equally effective
- bone resorption during the first 48 hours of bone culture (fetal rat long bones): no significant bone resorption
- effective concentrations for bone resorption compared with EGF (fetal rat long bones): about one order of magnitude less than EGF
- time required to stimulate bone resorption (fetal rat long bones): at least 72 hours
- concentrations that stimulated bone resorption (fetal rat long bones; three separate experiments (Example XIII)): greater than 2 ng EGF equivalents/ml
- concentrations that stimulated bone resorption (fetal rat long bones; three separate experiments (Example XIV)): greater than 2 ng of EGF equivalents per milliliter
- colonies in soft agar (normal rat kidney cells): 154 colonies
- antigen concentration for 50% displacement of antigen from antibody (antibody to TGF peptide): 0.2-0.3 ng equivalents of EGF
- approximate percentage of burn epithelialized (second degree burns [6]; 0.1 μg/ml in Silvadene): 90%
- approximate percentage of burn epithelialized (second degree burns [6]; 0.5 μg/ml in Silvadene): 65%
- approximate percentage of burn epithelialized (second degree burns [6]; 10 μg/ml in Silvadene): 90%
- inhibition of antibody reaction with BSA-TGF peptide (anti-KLH-peptide 1 IgG): slightly less

Compound: VVSHFNKCPDSHT [Peptide I]
- inhibition of precipitation of 125I-peptide III, in words [5]: ineffective as a competitor
- Relative Inhibitory Activity [5]: > 1500

Compound: hEGF: Human EGF
- PERCENTAGE OF WOUND HEALED Burn A (second degree burns [7]; 0.1 μg/ml in Silvadene): 17 percentage
- PERCENTAGE OF WOUND HEALED Burn B (second degree burns [7]; 0.1 μg/ml in Silvadene): 14 percentage
- PERCENTAGE OF WOUND HEALED Burn A (second degree burns [7]; 1 μg/ml in Silvadene): 14 percentage
- PERCENTAGE OF WOUND HEALED Burn B (second degree burns [7]; 1 μg/ml in Silvadene): 17 percentage

Compound: CHSGYVGVRC (cysteine pairing not given here) [Peptide II]
- highest concentration without inhibition of precipitation of 125I-peptide III [5]: > 1.1 µM
- Relative Inhibitory Activity [5]: > 1500

Compound: Ac-Cys-His-Ser-Gly-Tyr-Val-Gly-Ala-Arg-Cys-OMe (Ac-CHSGYVGARC-OMe; disulfide 1-10 (inferred)) [Peptide 3]
- IC50 ([1]; 1 nM 125I-EGF, read-out: Binding IC50 (M) A-431): 4e-07 M
- binding potency as % of EGF or TGF-α ([1]; A-431 cells): ~0.2%
- IC50 [1, 8]: 4e-07 M
- IC50 [2, 9]: 3e-07 M
- IC50 [3]: 500 nM
- IC50 [4]: 600 nM

Compound: CC(C)[C@@H]1NC(=O)CNC(=O)[C@H](C(C)C)NC(=O)[C@H](Cc2ccc(O)cc2)NC(=O)CNC(=O)[C@H](CO)NC(=O)[C@H](Cc2c[nH]cn2)NC(=O)[C@@H](N)CSSC[C@@H](C(=O)O)NC(=O)[C@H](CCCNC(=N)N)NC1=O [Peptide 1] (H-CHSGYVGVRC-OH; disulfide 1-10)
- inhibition of antibody reaction with BSA-TGF peptide (anti-KLH-peptide 1 IgG): inhibited in a concentration-dependent fashion
- IC50 [1]: 8e-05 M
- inhibition of 125I-EGF binding to A-431 cells, in words ([1]; at >10^-6 M): partially inhibited
- IC50 [2]: 6e-05 M
- IC50 [3]: > 10000 nM
- IC50 [4]: > 10000 nM
